Results from US20050136536A1, “Embryonic epithelial cells” (priority 2003, published 2005).

Test system: cytokeratin 7
Test: differentiation of hES cells on gelatin-coated glass slides, cytokeratin 7 staining
Assay type: cell-based, human
Details: 300 nM AM580, serum medium, stained after 6 or 8 days
Method: H9 cells (Thomson, J. A., et al., “Embryonic stem cells lines derived from human blastocysts”, Science 282, 1145-1147 (1998)) were grown as described in Spradling, A., et al., “Stem cells find their niche”, Nature 414, 98-104 (2001), the entire contents of which are incorporated herein by reference. C2C12 cells were grown as described in Yaffee, D. & Saxel, O., “Serial passaging and differentiation of myogenic cells isolated from dystrophic mouse muscle”, Nature 270, 725-7 (1977). Specifically, hES cells (H9 clone) were grown on mouse embryo fibroblasts (Cell Essential) in KnockOut Medium (Gibco-BRL, Gaithersburg, Md.), a modified version of Dulbeco's modified Eagle's medium optimized for ES cells (Itskovitz-Eldor, et. al., (2000) Mol. Med. 6, 88-95, the contents of which are incorporated herein by reference). Tissue cover plates were covered with 0.1% gelatin (Sigma). Culture were grown in 5% CO2 and were routinely passaged every 5-6 days after disaggregating with 1 mg/ml collagenase type IV (Gibco-BRL). To induce formation of EBs, hES colonies were digested using either 1 mg/ml collagenase type IV or trypsin/EDTA (0.1%/1 mM) and transferred to petri dishes to allow their aggregation and prevent adherence to the plate. […]

For CC1(C)CCC(C)(C)c2cc(C(=O)Nc3ccc(C(=O)O)cc3)ccc21 [AM580], the “development of cytokeratin 7-positive cells” value was “increases the development of cytokeratin 7-positive cells”.
